Laboratory results as given in ChEMBL document CHEMBL1201862, “PubChem BioAssay data set” (2004).
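Cultured in 96-well plates, cells were exposed to test compound for 48 hours across five concentrations. At the GI50, growth is halved.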 Activity calls are given as the source filed them. Rule as the data show it: active = GI50 up to about 1.1 µM and inactive = higher.

What was measured:
Assay in all cases: DTP human tumour cell line panel, 48 h
SK-MEL-5 = tested on: SK-MEL-5
DU-145 = tested on: DU-145
NCI-H23 = tested on: NCI-H23
HCC 2998 = tested on: HCC 2998
NCI-H460 = tested on: NCI-H460
CAKI-1 = tested on: CAKI-1
SF-539 = tested on: SF-539
HL-60 = tested on: HL-60
MDA-MB-231 = tested on: MDA-MB-231
ACHN = tested on: ACHN
MDA-N = tested on: MDA-N
SN12C = tested on: SN12C
CCRF-CEM = tested on: CCRF-CEM
SR = tested on: SR
HCT-15 = tested on: HCT-15
Malme-3M = tested on: Malme-3M
Hs-578T = tested on: Hs-578T
RXF 393 = tested on: RXF 393
T47D = tested on: T47D

Row | Structure (SMILES) | GI50 (SK-MEL-5) | GI50 (DU-145) | GI50 (NCI-H23) | GI50 (HCC 2998) | GI50 (NCI-H460) | GI50 (CAKI-1) | GI50 (SF-539) | GI50 (HL-60) | GI50 (MDA-MB-231) | GI50 (ACHN) | GI50 (MDA-N) | GI50 (SN12C) | GI50 (CCRF-CEM) | GI50 (SR) | GI50 (HCT-15) [µM] | GI50 (Malme-3M) | GI50 (Hs-578T) | GI50 (RXF 393) | GI50 (T47D)
1 | Nc1ccc(C23CC4CC(C2)CC(c2ccc(N)cc2)(C4)C3)cc1 | 13.1 µM (inactive) | 51.2 µM (inactive) | 59.6 µM (inactive) | 8.09 µM (inactive) | 37.2 µM (inactive) | > 100 µM (inactive) | 16.4 µM (inactive) | 31 µM (inactive) | 1.96 µM (inactive) | 41.1 µM (inactive) | 37.7 µM (inactive) | 25.1 µM (inactive) | 15.7 µM (inactive) | 14.6 µM (inactive) | 14.5 |  |  |  | 
2 | [N-]=[N+]=Nc1cc(=O)n(-c2ccccc2)c(=O)n1-c1ccccc1 | > 100 µM (inactive) |  | > 100 µM (inactive) |  |  | > 100 µM (inactive) | > 100 µM (inactive) |  | > 100 µM (inactive) | > 100 µM (inactive) |  | > 100 µM (inactive) | > 100 µM (inactive) | > 100 µM (inactive) |  | > 100 µM (inactive) | > 100 µM (inactive) | > 100 µM (inactive) | > 100 µM (inactive)
3 | COC(=O)C1(C(=O)OC)N=C(C)OC1c1ccccc1O (centres undefined) | > 100 µM (inactive) | > 100 µM (inactive) | > 100 µM (inactive) | > 100 µM (inactive) | > 100 µM (inactive) | > 100 µM (inactive) |  | > 100 µM (inactive) |  | > 100 µM (inactive) |  | > 100 µM (inactive) | > 100 µM (inactive) | > 100 µM (inactive) | > 100 |  |  | > 100 µM (inactive) | > 100 µM (inactive)
4 | O=C1c2ccccc2C(=O)c2c1ccc(O)c2O [ATHRAQUINONES A] |  |  | 41.6 µM (inactive) | 33.1 µM (inactive) | 38.9 µM (inactive) | 39.5 µM (inactive) | 42.6 µM (inactive) |  |  | 34.8 µM (inactive) |  | 42.3 µM (inactive) | 36.6 µM (inactive) | 34.8 µM (inactive) | 37.1 |  |  | 40.8 µM (inactive) | 
5 | Cc1ccc2nc3ccccc3c(C3C4C(=O)N(c5ccc(F)cc5)C(=O)C4ON3C(C(N)=O)c3ccccc3)c2c1 (centres undefined) |  | 59.3 µM (inactive) | 29.9 µM (inactive) |  | 34.8 µM (inactive) | 24.4 µM (inactive) | 27.6 µM (inactive) | 34.9 µM (inactive) | 39.8 µM (inactive) | 49.3 µM (inactive) |  | 33 µM (inactive) | 38.5 µM (inactive) | 40.9 µM (inactive) | 27.2 | 27.4 µM (inactive) | 31.3 µM (inactive) | 30.2 µM (inactive) | 84.1 µM (inactive)
6 | O=S(=O)(O)c1ccc(O)c(/N=N/c2c(O)ccc3ccccc23)c1 | > 100 µM (inactive) | > 100 µM (inactive) | > 100 µM (inactive) |  |  | > 100 µM (inactive) |  |  | > 100 µM (inactive) |  | > 100 µM (inactive) | > 100 µM (inactive) | 36.6 µM (inactive) |  | > 100 |  | > 100 µM (inactive) | > 100 µM (inactive) | > 100 µM (inactive)
7 | CN(C)C(=O)Oc1ccc(C(=S)Nc2ccccc2)cc1Br | 16.9 µM (inactive) | 54.5 µM (inactive) | 22.9 µM (inactive) | 33.1 µM (inactive) | 23.1 µM (inactive) | 63.7 µM (inactive) | 72.3 µM (inactive) | 16.8 µM (inactive) |  | 30.5 µM (inactive) | 21.7 µM (inactive) |  | 21 µM (inactive) | 16.1 µM (inactive) | 28.9 | 33.6 µM (inactive) | 8.59 µM (inactive) |  | 25 µM (inactive)
8 | COc1cc(C2c3cc4c(cc3OC(NNC(N)=O)C2C)OCO4)cc(OC)c1OC (centres undefined) | 0.123 µM (active) | 0.585 µM (active) | 0.394 µM (active) | 0.373 µM (active) | 0.179 µM (active) | 0.634 µM (active) | 0.0689 µM (active) | 0.11 µM (active) |  | 0.557 µM (active) | 0.0362 µM (active) | 0.404 µM (active) | 0.109 µM (active) | 0.0826 µM (active) | 0.274 | 0.828 µM (active) | 0.125 µM (active) | 0.525 µM (active) | > 66.4 µM (inactive)
9 | COC(=O)/C1=C/C=C\C[C@@]2(C)CC(c3ccoc3)OC(=O)[C@@H]2CC[C@H]1C (some centres undefined) | > 25 µM (inactive) |  | > 25 µM (inactive) | > 25 µM (inactive) | > 25 µM (inactive) | > 25 µM (inactive) | > 25 µM (inactive) | 7.23 µM (inactive) | > 25 µM (inactive) | > 25 µM (inactive) | > 25 µM (inactive) | > 25 µM (inactive) | > 25 µM (inactive) | > 25 µM (inactive) | > 25 | > 25 µM (inactive) | > 25 µM (inactive) | > 25 µM (inactive) | 
10 | O=C1C2c3[nH]c4ccccc4c3C3CCCC3C2C(=O)N1c1ccccc1 (centres undefined) | > 100 µM (inactive) |  | > 100 µM (inactive) | > 100 µM (inactive) | 91.8 µM (inactive) |  | > 100 µM (inactive) |  |  | > 100 µM (inactive) |  | > 100 µM (inactive) | > 100 µM (inactive) | > 100 µM (inactive) | 78 | > 100 µM (inactive) |  | > 100 µM (inactive) | 
